{"source": "PubChem BioAssay AID1963850", "about": "(Molecular Pharmacology Branch, DTP, NCI, 2024);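 also: spheroids exposed to drugs for seven days before reading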;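 as to viability, T/C: 100% = DMSO vehicle control viability in luminescence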", "tested_on": "192522-019-R-J2-PDC complex tumor spheroid viability", "test": "Anticancer human tumor 192522-019-R-J2-PDC patient-derived colon adenocarcinoma cell line growth inhibition [POLQ]", "details": "for IC50: curve of first compound; for viability, T/C: stronger effect = lower value", "outline": "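Three-cell-type spheroids modelling solid tumor plus stroma served as the readout system; POL inhibitors were tested individually and in combination, concentration ranges set by clinical Cmax where known.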", "data": [{"smiles": "Cn1ncnc1[C@H]1c2n[nH]c(=O)c3cc(F)cc(c23)N[C@@H]1c1ccc(F)cc1", "note": "+ Nc1ccc(C#CCN(C(=O)Cc2ncc(C(F)(F)F)cc2C(F)(F)F)c2ccc(F)cc2)nn1", "values": [{"measurement": "IC50", "setting": "second compound 0.0316 µM", "result": "> 100", "unit": "nM"}, {"measurement": "IC50", "setting": "second compound 0.1 µM", "result": "> 100", "unit": "nM"}, {"measurement": "IC50", "setting": "second compound 0.316 µM", "result": "> 100", "unit": "nM"}, {"measurement": "IC50", "setting": "second compound 1 µM", "result": "> 100", "unit": "nM"}, {"measurement": "IC50", "setting": "second compound 3.16 µM", "result": "> 100", "unit": "nM"}, {"measurement": "IC50", "setting": "second compound 10 µM", "result": "> 100", "unit": "nM"}, {"measurement": "viability, T/C", "setting": "second compound 0.0316 µM, first compound 0.000316 µM", "result": 101, "unit": "%"}, {"measurement": "viability, T/C", "setting": "second compound 0.0316 µM, first compound 0.001 µM", "result": 108, "unit": "%"}, {"measurement": "viability, T/C", "setting": "second compound 0.0316 µM, first compound 0.00316 µM", "result": 101, "unit": "%"}, {"measurement": "viability, T/C", "setting": "second compound 0.0316 µM, first compound 0.01 µM", "result": 104, "unit": "%"}, {"measurement": "viability, T/C", "setting": "second compound 0.0316 µM, first compound 0.0316 µM", "result": 99.4, "unit": "%"}, {"measurement": "viability, T/C", "setting": "second compound 0.0316 µM, first compound 0.1 µM", "result": 98.9, "unit": "%"}, {"measurement": "viability, T/C", "setting": "second compound 0.1 µM, first compound 0.000316 µM", "result": 108, "unit": "%"}, {"measurement": "viability, T/C", "setting": "second compound 0.1 µM, first compound 0.001 µM", "result": 100, "unit": "%"}, {"measurement": "viability, T/C", "setting": "second compound 0.1 µM, first compound 0.00316 µM", "result": 107, "unit": "%"}, {"measurement": "viability, T/C", "setting": "second compound 0.1 µM, first compound 0.01 µM", "result": 110, "unit": "%"}, {"measurement": "viability, T/C", "setting": "second compound 0.1 µM, first compound 0.0316 µM", "result": 113, "unit": "%"}, {"measurement": "viability, T/C", "setting": "second compound 0.1 µM, first compound 0.1 µM", "result": 91.4, "unit": "%"}, {"measurement": "viability, T/C", "setting": "second compound 0.316 µM, first compound 0.000316 µM", "result": 107, "unit": "%"}, {"measurement": "viability, T/C", "setting": "second compound 0.316 µM, first compound 0.001 µM", "result": 95.4, "unit": "%"}, {"measurement": "viability, T/C", "setting": "second compound 0.316 µM, first compound 0.00316 µM", "result": 97.9, "unit": "%"}, {"measurement": "viability, T/C", "setting": "second compound 0.316 µM, first compound 0.01 µM", "result": 108, "unit": "%"}, {"measurement": "viability, T/C", "setting": "second compound 0.316 µM, first compound 0.0316 µM", "result": 111, "unit": "%"}, {"measurement": "viability, T/C", "setting": "second compound 0.316 µM, first compound 0.1 µM", "result": 102, "unit": "%"}, {"measurement": "viability, T/C", "setting": "second compound 1 µM, first compound 0.000316 µM", "result": 119, "unit": "%"}, {"measurement": "viability, T/C", "setting": "second compound 1 µM, first compound 0.001 µM", "result": 109, "unit": "%"}, {"measurement": "viability, T/C", "setting": "second compound 1 µM, first compound 0.00316 µM", "result": 102, "unit": "%"}, {"measurement": "viability, T/C", "setting": "second compound 1 µM, first compound 0.01 µM", "result": 99.9, "unit": "%"}, {"measurement": "viability, T/C", "setting": "second compound 1 µM, first compound 0.0316 µM", "result": 105, "unit": "%"}, {"measurement": "viability, T/C", "setting": "second compound 1 µM, first compound 0.1 µM", "result": 114, "unit": "%"}, {"measurement": "viability, T/C", "setting": "second compound 3.16 µM, first compound 0.000316 µM", "result": 102, "unit": "%"}, {"measurement": "viability, T/C", "setting": "second compound 3.16 µM, first compound 0.001 µM", "result": 107, "unit": "%"}, {"measurement": "viability, T/C", "setting": "second compound 3.16 µM, first compound 0.00316 µM", "result": 109, "unit": "%"}, {"measurement": "viability, T/C", "setting": "second compound 3.16 µM, first compound 0.01 µM", "result": 106, "unit": "%"}, {"measurement": "viability, T/C", "setting": "second compound 3.16 µM, first compound 0.0316 µM", "result": 105, "unit": "%"}, {"measurement": "viability, T/C", "setting": "second compound 3.16 µM, first compound 0.1 µM", "result": 104, "unit": "%"}, {"measurement": "viability, T/C", "setting": "second compound 10 µM, first compound 0.000316 µM", "result": 108, "unit": "%"}, {"measurement": "viability, T/C", "setting": "second compound 10 µM, first compound 0.001 µM", "result": 114, "unit": "%"}, {"measurement": "viability, T/C", "setting": "second compound 10 µM, first compound 0.00316 µM", "result": 109, "unit": "%"}, {"measurement": "viability, T/C", "setting": "second compound 10 µM, first compound 0.01 µM", "result": 99.2, "unit": "%"}, {"measurement": "viability, T/C", "setting": "second compound 10 µM, first compound 0.0316 µM", "result": 99.2, "unit": "%"}, {"measurement": "viability, T/C", "setting": "second compound 10 µM, first compound 0.1 µM", "result": 107, "unit": "%"}]}]}
